Experimental data from patent US20240425478A1, “CYCLOPENTYLPYRAZOLE CDK2 INHIBITORS” (Genentech, Inc., priority 2021, published 2024).
Where two headings read alike, the source gives them in different places.

Assays:
[1] = target: T1, Cyclin Dependent Kinase 1/Cyclin A2 (CDK1-cycA2) (Homo sapiens, UniProt P06493); test: CDK1-cycA2 TR-FRET (Lance) enzyme assay; assay type: biochemical; settings: for Ki: Table O, enzymatic assay; for FS CDK1/CDK2: fold selectivity, enzymatic Ki ratio
T1 construct: purchased ProQinase 0134-0054-1
Method in brief: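 TR-FRET (Lance) detection of phospho-4E-BP1 with a europium-labelled antibody after EDTA quench (15 mM final); signal taken as acceptor/donor ratio. Enzyme and compound were pre-incubated 30 min in HEPES pH 7.5 buffer with MgCl2, TCEP, BGG and Brij 35. Ki derived by Morrison fit.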

[2] = target: T2, Cyclin Dependent Kinase 2/Cyclin E1 (CDK2-cycE1) (Homo sapiens, UniProt P24941); test: CDK2-cycE1 TR-FRET (LANCE) enzyme assay; assay type: biochemical; settings: for FS CDK1/CDK2 / FS CDK4/CDK2: fold selectivity;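 as to improvement in potency against CDK2 (Ki) over Comparator C: fold lower CDK2 Ki than comparator c (Ki 0.032 µM)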
T2 construct: purchased ProQinase 0050-0055-1
Method in brief: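 Kinase reaction buffer: 50 mM HEPES pH 7.5, 10 mM MgCl2, 2 mM TCEP, 0.05% BGG, 0.01% Brij 35, with 30 min compound–enzyme pre-incubation.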

[3] = target: T3, Cyclin Dependent Kinase 4/Cyclin D3 (CDK4-cycD3) (Homo sapiens, UniProt P11802); test: CDK4-cycD3 TR-FRET (LANCE) enzyme assay; assay type: biochemical; settings: for Ki: Table O, enzymatic assay; for FS CDK4/CDK2: fold selectivity, enzymatic Ki ratio
T3 construct: purchased Carna Biosciences 04-105
Method in brief: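 Compound dose responses pre-incubated 30 min with enzyme mix in 50 mM HEPES pH 7.5, 10 mM MgCl2, 2 mM TCEP, 0.05% BGG, 0.01% Brij 35. Reaction quenched with EDTA (15 mM final); Eu-anti-phospho-4E-BP1 TR-FRET detection, acceptor/donor ratio. Ki derived by Morrison equation.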

[4] = system: OVISE (JCRB1043, CCNE1-amplified); test: OVISE EdU incorporation cell proliferation assay (CDK2-dependent); assay type: cell-based; settings: for IC50: cellular assay, read-out: CDK2 OVISE IC50; for FS SKOV-3/OVISE / FS p-H3/OVISE: fold selectivity; for FS p-H3/OVISE: cellular p-H3 IC50 over OVISE IC50
Method in brief: (§1)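 EdU incorporation (0.5 μM final, last 8 h) follows a 16 h compound exposure at 37 °C, 5% CO2 in RPMI plus 10% FBS, 0.5% DMSO. After fixation, imaging scores EdU-positive cells; a 4-parameter logistic fit of that fraction gives IC50.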

[5] = system: SKOV-3 (ATCC HTB-77); test: SKOV-3 EdU incorporation cell proliferation assay (CDK4/6-dependent); assay type: cell-based; settings: for IC50: Homo sapiens, cellular assay, read-out: CDK4/6 SKOV-3 IC50; for FS SKOV-3/OVISE: fold selectivity, cellular IC50 ratio
Method in brief: as §1

[6] = system: HCT116 cells; test: p-H3 HCT-116 mitotic release cell proliferation assay (cellular CDK1); assay type: cell-based; settings: Homo sapiens, HCT-116; Table O, cellular assay; read-out: CDK1 p-H3 IC50
Method in brief: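 Phospho-Histone H3 (Ser10) in lysates was quantified by a two-antibody HTRF FRET read (≥2 h, room temperature). Before this, HCT116 cells held in mitosis by 16 h of 500 nM nocodazole were treated with compound for 4 h at 37 °C, 0.1% DMSO.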

[7] = Table O, enzymatic assay, read-out: CDK2 Ki
[8] = Table O, enzymatic CDK1 Ki over CDK2 Ki
[9] = Table O, enzymatic CDK4 Ki over CDK2 Ki
[10] = Table O, cellular SKOV-3 IC50 over OVISE IC50

T1 sequence (P06493 whole entry): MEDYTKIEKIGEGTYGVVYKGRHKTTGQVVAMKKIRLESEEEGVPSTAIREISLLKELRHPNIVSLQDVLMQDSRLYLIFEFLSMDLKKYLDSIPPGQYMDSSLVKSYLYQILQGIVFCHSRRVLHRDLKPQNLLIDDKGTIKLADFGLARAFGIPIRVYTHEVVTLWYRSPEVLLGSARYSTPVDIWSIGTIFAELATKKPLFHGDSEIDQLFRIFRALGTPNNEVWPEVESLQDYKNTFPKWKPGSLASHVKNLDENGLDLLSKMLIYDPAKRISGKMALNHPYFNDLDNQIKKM
T1 sequence (P20248 whole entry partner): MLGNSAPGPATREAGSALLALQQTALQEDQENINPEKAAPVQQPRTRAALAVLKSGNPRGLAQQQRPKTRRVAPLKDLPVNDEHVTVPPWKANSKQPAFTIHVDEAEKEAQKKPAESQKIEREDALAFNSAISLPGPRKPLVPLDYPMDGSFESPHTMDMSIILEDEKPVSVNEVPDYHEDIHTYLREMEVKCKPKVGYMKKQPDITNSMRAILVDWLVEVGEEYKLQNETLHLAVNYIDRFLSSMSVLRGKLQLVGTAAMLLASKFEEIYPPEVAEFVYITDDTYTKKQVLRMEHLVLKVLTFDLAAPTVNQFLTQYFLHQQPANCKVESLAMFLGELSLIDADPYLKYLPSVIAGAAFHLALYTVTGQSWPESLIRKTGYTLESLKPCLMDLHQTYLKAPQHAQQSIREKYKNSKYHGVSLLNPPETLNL
T3 sequence (P11802 whole entry): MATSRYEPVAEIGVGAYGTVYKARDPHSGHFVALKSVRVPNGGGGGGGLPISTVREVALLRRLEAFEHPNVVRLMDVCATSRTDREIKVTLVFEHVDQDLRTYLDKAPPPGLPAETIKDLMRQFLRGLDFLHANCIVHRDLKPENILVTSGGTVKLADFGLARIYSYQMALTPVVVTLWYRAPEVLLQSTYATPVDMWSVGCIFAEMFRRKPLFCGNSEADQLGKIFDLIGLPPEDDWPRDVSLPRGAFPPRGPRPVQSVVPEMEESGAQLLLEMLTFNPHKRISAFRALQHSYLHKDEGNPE
T3 sequence (P30281 whole entry partner): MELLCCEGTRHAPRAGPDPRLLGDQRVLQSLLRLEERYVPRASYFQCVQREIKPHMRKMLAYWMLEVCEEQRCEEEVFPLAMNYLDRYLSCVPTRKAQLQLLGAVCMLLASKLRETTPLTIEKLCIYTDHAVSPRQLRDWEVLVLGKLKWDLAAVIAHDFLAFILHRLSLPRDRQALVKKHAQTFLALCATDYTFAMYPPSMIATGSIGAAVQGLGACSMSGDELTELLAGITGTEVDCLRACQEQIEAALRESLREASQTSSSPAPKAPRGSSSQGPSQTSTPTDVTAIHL

| Compound | Ki [1] [nM] | Ki [2, 7] [nM] | FS CDK1/CDK2 [2, 8] | FS CDK4/CDK2 [2, 9] | Ki [3] [nM] | IC50 ([4]; Table O) [nM] | FS SKOV-3/OVISE [4, 10] | FS p-H3/OVISE ([4]; Table O) | IC50 ([5]; SK-OV-3, Table O) [nM] | IC50 [6] [nM] | also measured |
| --- | --- | --- | --- | --- | --- | --- | --- | --- | --- | --- | --- |
| Cc1cc(Nc2cc([C@H]3CC[C@@H](OC(=O)NC(C)(C)C)C3)[nH]n2)nn(C)c1=O [Example 4D, (1R,3S)-3-(3-((1,5-dimethyl-6-oxo-1,6-dihydropyridazin-3-yl)amino)-1H-pyrazol-5-yl)cyclopentyl tert-butylcarbamate] | 3.7 | < 0.1 | >59 | >620 | 39 | 26 | 58 | 0.35 | 1500 | 9.2 | FS CDK1/CDK2 increased over Comparator D, (+) sign ([1]; Table R): (+); FS CDK1/CDK2 ([1]; Table R): > 59; FS CDK1/CDK2 ([1]; Table S): >59; Ki ([2]; Table R, enzymatic assay, read-out: CDK2 Ki): < 0.1 nM; CDK2 Ki fold change in potency versus Comparator D ([2]; Table R, in brackets after CDK2 Ki): 27 fold; Ki ([2]; Table S, enzymatic assay, read-out: CDK2 Ki): < 0.1 nM; CDK2 Ki fold change in potency versus Comparator E ([2]; Table S, in brackets after CDK2 Ki): 5.2 fold; Ki ([2]; read-out: CDK2 activity / potency (enzymatic assay)): ≤ 1 nM; FS CDK4/CDK2 increased over Comparator D, (+) sign ([3]; Table R): (+); FS CDK4/CDK2 ([3]; Table R): > 620; FS CDK4/CDK2 increased over Comparator E, (+) sign ([3]; Table S): (+); FS CDK4/CDK2 ([3]; Table S): > 620; CDK2 cell potency compared with Comparator E ([4]; CDK2 OVISE cellular assay data): more potent CDK2 cell inhibitors compared to Comparator E; CDK2 OVISE IC50 fold change in potency versus Comparator D ([4]; Table R, in brackets after OVISE IC50): 146 fold; CDK2 OVISE IC50 fold change in potency versus Comparator E ([4]; Table S, in brackets after OVISE IC50): 6.5 fold; selectivity for CDK2 over CDK4 compared with Comparator E ([5]; SKOV-3/OVISE fold-selectivity cellular assay data): increase in selectivity for CDK2 over CDK4; FS SKOV-3/OVISE increased over Comparator D, (+) sign ([5]; Table R): (+); FS SKOV-3/OVISE ([5]; Table R): 58; FS SKOV-3/OVISE increased over Comparator E, (+) sign ([5]; Table S): (+); FS SKOV-3/OVISE ([5]; Table S): 58 |
| Cc1nc(S(C)(=O)=O)ccc1Nc1cc([C@H]2CC[C@@H](OC(=O)NC(C)(C)C)C2)[nH]n1 [Example 4L, (1R,3S)-3-(3-((2-methyl-6-(methylsulfonyl)pyridin-3-yl)amino)-1H-pyrazol-5-yl)cyclopentyl tert-butylcarbamate] | 95 | 2.9 | 33 | 162 | 470 | 310 | 52 | 1 | 16000 | 310 |  |
| Cc1nccc(Nc2cc([C@H]3CC[C@@H](OC(=O)NC(C)C)C3)[nH]n2)n1 [Example 2O, (1R,3S)-3-(3-((2-methylpyrimidin-4-yl)amino)-1H-pyrazol-5-yl)cyclopenty1 isopropylcarbamate] | 24 | 0.87 | 28 | 290 | 250 | 70 | 56 | 0.31 | 3900 | 22 | improvement in potency against CDK2 (Ki) over Comparator C [2]: 37 fold; increased fold-selectivity CDK4/CDK2 over Comparator C ([2]; Table Q, (+) sign after FS CDK4/CDK2): (+) (The (+) sign in Table Q signifies desirable increased fold-selectivity of the exemplary compounds over Comparator C); Ki ([2]; Table Q, enzymatic assay, read-out: CDK2 Ki): 0.87 nM; FS CDK1/CDK2 ([2]; Table Q, enzymatic): 28; FS CDK4/CDK2 ([2]; Table Q, enzymatic): 290; increased fold-selectivity SKOV-3/OVISE over Comparator C ([4]; Table Q, (+) sign after FS SKOV-3/OVISE): (+) (The (+) sign in Table Q signifies desirable increased fold-selectivity of the exemplary compounds over Comparator C); FS SKOV-3/OVISE ([4]; Table Q, cellular): 56; improvement in CDK2 OVISE cell potency over Comparator C ([4]; Table Q, in brackets after OVISE IC50, Comparator C 5.5 μM): 78.6 fold; IC50 ([5]; SK-OV-3, Table Q): 3900 nM |
| CNC(=O)c1cc(C)c(Nc2cc([C@H]3CC[C@@H](OC(=O)NC45CC(C4)C5)C3)[nH]n2)cn1 [Example 9C, (1R,3S)-3-(3-((4-methyl-6-(methylcarbamoyl)pyridin-3-yl)amino)-1H-pyrazol-5-yl)cyclopentyl bicyclo[1.1.1]pentan-1-ylcarbamate] | 190 | 2 | 95 | 200 | 400 | 180 | 51 | 1.0 | 9100 | 180 |  |
| Cn1nc(Nc2cc([C@H]3CC[C@@H](OC(=O)NC(C)(C)C(F)F)C3)[nH]n2)ccc1=O [Example 5C, (1R,3S)-3-(3-((1-methyl-6-oxo-1,6-dihydropyridazin-3-yl)amino)-1H-pyrazol-5-yl)cyclopentyl (1,1-difluoro-2-methylpropan-2-yl)carbamate] | 9.4 | 0.3 | 31 | 433 | 130 | 63 | 84 | 2.4 | 5300 | 150 |  |
